Reference: article PMC10774164, “Hydrolysis of ionic liquid–treated substrate with an Iocasia fonsfrigidae strain SP3-1 endoglucanase” (Applied Microbiology and Biotechnology, 2024)

Tested on: T1, IfCelS12A
T1 construct: tag removal not described
Experiment: hydrolysis kinetics, Lineweaver-Burk plot
Assay type: biochemical, Iocasia fonsfrigidae
Settings: 50 mM Tris-HCl pH 7.0, 50 °C, 10 min, 0.5 μM enzyme
Source text: hydrolysis kinetics, Lineweaver-Burk plot on IfCelS12A

Row | SMILES | Km [µM]
1 | OC[C@H]1O[C@@H](O[C@H]2[C@H](O)[C@@H](O)[C@H](O[C@H]3[C@H](O)[C@@H](O)[C@H](O[C@H]4[C@H](O)[C@@H](O)[C@H](O[C@H]5[C@H](O)[C@@H](O)[C@H](O[C@H]6[C@H](O)[C@@H](O)C(O)O[C@@H]6CO)O[C@@H]5CO)O[C@@H]4CO)O[C@@H]3CO)O[C@@H]2CO)[C@H](O)[C@@H](O)[C@@H]1O (stereo partly drawn) [G6, Cellohexaose] | 390
2 | OC[C@H]1O[C@@H](O[C@H]2[C@H](O)[C@@H](O)[C@H](O[C@H]3[C@H](O)[C@@H](O)[C@H](O[C@H]4[C@H](O)[C@@H](O)C(O)O[C@@H]4CO)O[C@@H]3CO)O[C@@H]2CO)[C@H](O)[C@@H](O)[C@@H]1O (stereo partly drawn) [G4, Cellotetraose] | 250
3 | OC[C@H]1O[C@@H](O[C@H]2[C@H](O)[C@@H](O)[C@H](O[C@H]3[C@H](O)[C@@H](O)[C@H](O[C@H]4[C@H](O)[C@@H](O)[C@H](O[C@H]5[C@H](O)[C@@H](O)C(O)O[C@@H]5CO)O[C@@H]4CO)O[C@@H]3CO)O[C@@H]2CO)[C@H](O)[C@@H](O)[C@@H]1O (stereo partly drawn) [G5, Cellopentaose] | 270
